Experimental data: article PMC3130094 (Pharmacological research : the official journal of the …, 2011)
Several values for one entry are separate records, joined by “and”; a condition that tells them apart may be missing. Identical values can stand only once. Entries after “also recorded” stand apart in the source; their conditions may differ. Like-named read-outs stand apart in the source and are kept apart here. Non-standard residues stand in square brackets, D forms with d. Residues, ends and D or L forms follow the SMILES beside them. No end group written: not given here.

Tests used:
[1] = tested on: HEK 293T cells; assay: Ratiometric Fura-2 calcium imaging, HEK 293T cells; type: cell-based, human; details: for Effect on ET-1 (30 nM) calcium transient: MDL-12,330A 50 µM, five minutes before ET-1, HEK 293T cells
[2] = target: T1, ET receptors (ETA/ETB) on intact HEK 293T cells (Homo sapiens, UniProt P25101); details: read-out: High affinity KI BQ-123; HEK 293T cells, high affinity site (assumed ETA)
T1 sequence (P25101 21-427): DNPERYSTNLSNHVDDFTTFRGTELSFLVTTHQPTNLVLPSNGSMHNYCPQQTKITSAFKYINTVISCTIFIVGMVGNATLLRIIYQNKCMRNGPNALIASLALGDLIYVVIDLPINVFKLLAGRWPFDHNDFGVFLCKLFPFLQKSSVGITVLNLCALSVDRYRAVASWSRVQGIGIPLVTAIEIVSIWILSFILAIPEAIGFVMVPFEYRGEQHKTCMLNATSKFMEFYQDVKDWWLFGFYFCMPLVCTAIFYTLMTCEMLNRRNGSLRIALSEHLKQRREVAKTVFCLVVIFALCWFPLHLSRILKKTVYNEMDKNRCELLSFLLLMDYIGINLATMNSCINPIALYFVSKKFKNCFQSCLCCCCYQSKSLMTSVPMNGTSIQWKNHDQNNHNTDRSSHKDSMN

[3] = tested on: ET receptors (ETA/ETB) on intact HEK 293T cells
[4] = tested on: ET receptors (ETA/ETB) on intact HEK 293 cells; details: for Ki: HEK 293 cells
[5] = tested on: ET receptors (ETA/ETB) on intact ND7/104 cells; assay: Competition binding against 30 pM [125I]-ET-1, intact ND7/104 cells; set-up: species or system rat/mouse hybrid; details: 100 nM BQ-123, ND7/104 cells
[6] = tested on: ND7/104 cells; assay: Ratiometric Fura-2 calcium imaging, ND7/104 cells; type: cell-based, rat/mouse hybrid; details: for Effect on ET-1 (30 nM) calcium transient: MDL-12,330A 50 µM, five minutes before ET-1, ND7/104 cells
[7] = tested on: HEK 293 cells; assay: Ratiometric Fura-2 calcium imaging, HEK 293 cells; type: cell-based, human
[8] = tested on: HEK 293T cells; assay: Intracellular cAMP enzyme immunoassay, HEK 293T cells; type: cell-based, human; details: ET-1 0.3 nM to 300 nM, 10 min 37 °C
[9] = tested on: ND7/104 cells; assay: Intracellular cAMP enzyme immunoassay, ND7/104 cells; type: cell-based, rat/mouse hybrid; details: ET-1 0.3 nM to 300 nM, 10 min 37 °C
[10] = target: cloned tagged-ETB receptors; details: HEK 293 membranes ref [33]; cited from earlier work
[11] = tested on: ET receptors on intact ND7/104 cells; assay: [125I]-ET-1 saturation binding to intact ND7/104 cells; set-up: species or system rat/mouse hybrid; details: read-out: KD (I-ET-1), 4 °C
[12] = target: ET receptors in pituitary tissue sections; details: pituitary tissue sections ref [32]; cited from earlier work
[13] = target: cloned tagged-ETA receptors; details: HEK 293 membranes ref [33]; cited from earlier work

Compound: CC(C)C[C@@H]1NC(=O)[C@@H](C(C)C)NC(=O)[C@@H]2CCCN2C(=O)[C@@H](CC(=O)O)NC(=O)[C@@H](Cc2c[nH]c3ccccc23)NC1=O [BQ-123] (cyclo(L[dW][dD]P[dV]); ring closure inferred)
- Effect on ET-1 (30 nM) stimulated calcium increase ([1]; BQ-123 50 nM, HEK 293T cells): blocked; also recorded: completely prevented
- Ki [2]: 5.47 ± 1.52 nM
- ETA binding defined by BQ-123, share of specific [125I]-ET-1 binding ([3]; 100 nM BQ-123, HEK 293T cells): 75 ± 9%
- Low affinity Ki BQ-123 ([3]; HEK 293T cells, low affinity site): too high to allow its estimation
- Ki ([3]; read-out: KI (BQ-123), HEK 293T cells, 30 pM [125I]-ET-1): 0.21 ± 0.01 nM
- ETA binding defined by BQ-123, share of specific [125I]-ET-1 binding ([4]; 100 nM BQ-123, HEK 293 cells): 85.3 ± 19% and 85 ± 19%
- Ki ([4]; read-out: KI (BQ-123), 30 pM [125I]-ET-1): 0.39 ± 0.14 nM
- Ki ([4]; read-out: Low affinity KI BQ-123, low affinity site): 195 ± 136 nM
- ETA binding defined by BQ-123, share of specific [125I]-ET-1 binding [5]: 75.2 ± 22.2% and 75 ± 22%
- Effect on ET-1 (30 nM) stimulated calcium increase ([6]; BQ-123 50 nM, ND7/104 cells): blocked; also recorded: completely prevented

Compound: Cc1cc(C)cc(C(=O)N(C)[C@H](Cc2ccc(-c3ccccc3)cc2)C(=O)N[C@@H](Cc2c[nH]c3ccccc23)C(=O)O)c1 [IRL-2500]
- Effect on ET-1 (30 nM) stimulated calcium increase ([1]; IRL-2500 50 nM, HEK 293T cells): without effect; also recorded: not affected
- Effect on ET-1 (30 nM) stimulated calcium increase ([6]; IRL-2500 50 nM, ND7/104 cells): without effect; also recorded: not affected

Compound: Nc1ncnc2c1ncn2[C@@H]1O[C@H](COP(=O)(O)OP(=O)(O)OP(=O)(O)O)[C@@H](O)[C@H]1O [ATP]
- Calcium response to ATP ([1]; ATP 40 µM, HEK 293T cells): induced a strong and comparable calcium response
- Calcium response to ATP ([7]; ATP 40 µM): induced a strong and comparable calcium response
- Calcium response to ATP ([6]; ATP 40 µM, ND7/104 cells): induced a strong and comparable calcium response

Compound: Cl.c1ccc(C2CCCC2NC2=NCCCCCCCCCCC2)cc1 (stereo not drawn) [MDL-12,330A]
- Basal [Ca2+]in on application of antagonist/inhibitor alone ([1]; HEK 293T cells, MDL 12,330A 50 µM, data not shown): did not produce a significant effect; also recorded: did not elicit a significant rise of [Ca^2+]in
- Effect on ET-1 (30 nM) calcium transient [1]: same outcome
- Effect on ET-1 (30 nM) calcium transient ([1]; listed as MDL 12,330A): did not affect negatively
- Effect on calcium response to ATP ([6]; MDL 12,330A 50 µM preincubation, ND7/104 cells): markedly diminished response to ATP
- Effect on ET-1 (30 nM) calcium transient [6]: same outcome
- Effect on ET-1 (30 nM) calcium transient ([6]; listed as MDL 12,330A): did not affect negatively
- Basal [Ca2+]in on application of antagonist/inhibitor alone ([6]; ND7/104 cells, MDL 12,330A 50 µM, data not shown): did not produce a significant effect; also recorded: did not elicit a significant rise of [Ca^2+]in

Compound: COc1ccc2c(c1)CC[C@@H]1[C@@H]2CC[C@]2(C)[C@@H](NCCCCCCN3C(=O)C=CC3=O)CC[C@@H]12 [U73122]
- Effect on ET-1 (30 nM) induced calcium transient ([1]; U73122 10 µM, 30 min pretreatment, normalized to ionomycin, HEK 293T cells): complete inhibition
- Effect on calcium response to ATP ([1]; U73122 10 µM, HEK 293T cells): abrogated
- Effect on ET-1 (30 nM) induced calcium transient ([6]; U73122 10 µM, 30 min pretreatment, normalized to ionomycin, ND7/104 cells): complete inhibition
- Effect on calcium response to ATP ([6]; U73122 10 µM, ND7/104 cells): abrogated
- Effect on response elicited by bradykinin ([6]; U73122, ND7/104 cells, data not shown): does not inhibit

Compound: Endothelin-1 (CSCSSLMDKECVYFCHLDIIW; ends and bridges not checked; cysteine pairing not given here; UniProt P05305 53-73, looked up) [ET-1]
- Share of cells showing [Ca2+]in mobilization ([1]; ET-1 30 nM and 100 nM, HEK 293T cells): ~ 35%
- [Ca2+]in response to ET-1 (normalized to ATP 40 µM) ([1]; ET-1 30 or 100 nM, HEK 293T cells): caused an increase in [Ca]in
- [Ca2+]in response to ET-1 in the absence of extracellular calcium ([1]; calcium-free Ringer, HEK 293T cells): not diminished; also recorded: did not affect the response
- Intracellular cAMP accumulation [8]: did not record a rise of intracellular cAMP; also recorded: None of the ET-1 concentrations tested produced a significant effect
- Intracellular cAMP accumulation [9]: did not record a rise of intracellular cAMP; also recorded: None of the ET-1 concentrations tested produced a significant effect
- [Ca2+]in response to ET-1 (normalized to ATP 40 µM) ([7]; ET-1 30 or 100 nM): neither of these concentrations of ET-1 produced a detectable increase of [Ca^2+]in; also recorded: does not promote intracellular calcium mobilization; also recorded: this effect was not observed
- Share of cells showing [Ca2+]in mobilization ([6]; ET-1 30 nM and 100 nM, ND7/104 cells): ~ 35%
- [Ca2+]in response to ET-1 (normalized to ATP 40 µM) ([6]; ET-1 30 or 100 nM, ND7/104 cells): caused an increase in [Ca]in
- [Ca2+]in response to ET-1 in the absence of extracellular calcium ([6]; calcium-free Ringer, ND7/104 cells): not diminished; also recorded: did not affect the response

Compound: [^125I]-ET-1: radio-iodinated endothelin-1 used as radioligand
- Kd [10]: ~0.01 nM
- Kd [11]: 0.07 ± 0.01 nM
- Kd [12]: 0.071 nM
- Kd [13]: ~0.03 nM

Compound: CCCC[C@@H](NC(=O)[C@@H](Cc1cn(C(=O)OC)c2ccccc12)NC(=O)[C@H](CC(C)(C)C)NC(=O)N1[C@H](C)CCC[C@@H]1C)C(=O)O [BQ-788]
- Effect on ET-1 (30 nM) stimulated calcium increase ([1]; BQ-788 100 nM (Figure 6B: 100 and 200 nM), HEK 293T cells): without effect; also recorded: not affected
- Effect on ET-1 (30 nM) stimulated calcium increase ([6]; BQ-788 100 nM (Figure 6B: 100 and 200 nM), ND7/104 cells): without effect; also recorded: not affected
